# Values of other authors, collected in patent US20090223408A1, “Use of Sub-Micron Copper Salt Particles in Wood Preservation” (PhibroWood, LLC, priority 2004, published 2009).
# Where two headings read alike, the source gives them in different places.
# Experiments:
# [1] = baseline about 4 mg copper per liter
Solubility of copper (pH 4),Solubility of copper (pH 7),Solubility of copper (pH 10),Compound,leachate copper concentration relative to CCA baseline [1]
640 ppm,2 ppm,about 0.01 ppm,"[OH][Cu][OH] [copper hydroxide, copper(II) hydroxide]",–
–,–,–,copper citrate,over fifteen times the baseline concentration
